Assay results as given in ChEMBL document CHEMBL4507276 (2021).

Legend:
[1] = target: NT-3 growth factor receptor (Homo sapiens) (UniProt Q16288); details: Compound concentration 1000.0 nM
[2] = target: Phosphatidylinositol 3-kinase regulatory subunit gamma (Bos taurus) (UniProt O46404); experiment: PROTKINP55 Cerep selectivity data (BI); details: Compound concentration 20.0 uM
[3] = target: Fibroblast growth factor receptor 2 (Homo sapiens) (UniProt P21802); experiment: FGFR2 Invitrogen selectivity data (BI); details: Compound concentration 3.0 uM
[4] = target: Mitogen-activated protein kinase kinase kinase 9 (Homo sapiens) (UniProt P80192); experiment: MAP3K9 Invitrogen selectivity data (BI); details: Compound concentration 3.0 uM
[5] = test system: Mast/stem cell growth factor receptor Kit (Homo sapiens), P10721 [V654A]; experiment: KIT_V654A Invitrogen selectivity data (BI); details: Compound concentration 3.0 uM
[6] = target: T1, Mitogen-activated protein kinase kinase kinase 5 (Homo sapiens) (UniProt Q99683); experiment: MAP3K5 Invitrogen selectivity data (BI); details: Compound concentration 3.0 uM
T1 sequence (whole entry): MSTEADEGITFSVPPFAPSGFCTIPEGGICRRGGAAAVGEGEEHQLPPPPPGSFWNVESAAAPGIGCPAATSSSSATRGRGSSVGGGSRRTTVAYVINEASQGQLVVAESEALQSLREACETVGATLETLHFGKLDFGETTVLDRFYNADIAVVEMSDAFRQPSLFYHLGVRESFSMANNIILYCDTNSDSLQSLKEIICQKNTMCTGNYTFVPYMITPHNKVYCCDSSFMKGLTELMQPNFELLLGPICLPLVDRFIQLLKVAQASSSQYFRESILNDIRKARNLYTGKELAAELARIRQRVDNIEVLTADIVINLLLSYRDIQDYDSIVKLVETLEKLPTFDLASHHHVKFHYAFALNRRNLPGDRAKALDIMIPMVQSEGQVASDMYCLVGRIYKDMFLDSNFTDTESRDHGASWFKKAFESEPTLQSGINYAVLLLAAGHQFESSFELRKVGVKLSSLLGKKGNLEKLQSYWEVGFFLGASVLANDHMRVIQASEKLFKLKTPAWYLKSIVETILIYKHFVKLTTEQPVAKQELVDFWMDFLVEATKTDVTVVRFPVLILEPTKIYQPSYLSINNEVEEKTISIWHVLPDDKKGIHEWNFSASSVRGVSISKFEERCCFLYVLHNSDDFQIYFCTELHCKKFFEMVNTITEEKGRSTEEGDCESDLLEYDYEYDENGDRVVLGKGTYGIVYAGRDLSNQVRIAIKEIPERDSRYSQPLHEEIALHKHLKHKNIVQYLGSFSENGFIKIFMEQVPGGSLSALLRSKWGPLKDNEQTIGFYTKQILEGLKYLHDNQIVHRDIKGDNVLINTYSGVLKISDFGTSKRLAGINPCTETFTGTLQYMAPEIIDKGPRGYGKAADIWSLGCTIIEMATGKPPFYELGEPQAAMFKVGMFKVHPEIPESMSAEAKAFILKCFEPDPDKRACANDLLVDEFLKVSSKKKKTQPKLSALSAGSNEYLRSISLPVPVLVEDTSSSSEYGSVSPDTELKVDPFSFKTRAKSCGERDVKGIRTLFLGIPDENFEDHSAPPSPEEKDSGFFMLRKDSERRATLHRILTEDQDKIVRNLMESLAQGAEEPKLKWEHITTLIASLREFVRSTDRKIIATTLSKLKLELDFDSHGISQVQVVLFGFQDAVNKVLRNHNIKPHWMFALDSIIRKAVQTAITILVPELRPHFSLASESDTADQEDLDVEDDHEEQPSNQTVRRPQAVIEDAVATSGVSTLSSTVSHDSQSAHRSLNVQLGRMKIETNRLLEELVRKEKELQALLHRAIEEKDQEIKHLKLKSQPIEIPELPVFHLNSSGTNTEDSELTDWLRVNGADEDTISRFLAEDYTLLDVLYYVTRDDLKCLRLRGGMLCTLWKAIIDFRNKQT

[7] = target: cGMP-inhibited 3',5'-cyclic phosphodiesterase 3B (Homo sapiens) (UniProt Q13370); experiment: PDE3B Cerep selectivity data (BI); details: Compound concentration 20.0 uM
[8] = target: SRSF protein kinase 3 (Homo sapiens) (UniProt Q9UPE1); experiment: STK23 Invitrogen selectivity data (BI); details: Compound concentration 3.0 uM
[9] = target: T2, Serine/threonine-protein kinase TAO3 (Homo sapiens) (UniProt Q9H2K8); experiment: TAOK3 Invitrogen selectivity data (BI); details: Compound concentration 3.0 uM
T2 sequence (whole entry): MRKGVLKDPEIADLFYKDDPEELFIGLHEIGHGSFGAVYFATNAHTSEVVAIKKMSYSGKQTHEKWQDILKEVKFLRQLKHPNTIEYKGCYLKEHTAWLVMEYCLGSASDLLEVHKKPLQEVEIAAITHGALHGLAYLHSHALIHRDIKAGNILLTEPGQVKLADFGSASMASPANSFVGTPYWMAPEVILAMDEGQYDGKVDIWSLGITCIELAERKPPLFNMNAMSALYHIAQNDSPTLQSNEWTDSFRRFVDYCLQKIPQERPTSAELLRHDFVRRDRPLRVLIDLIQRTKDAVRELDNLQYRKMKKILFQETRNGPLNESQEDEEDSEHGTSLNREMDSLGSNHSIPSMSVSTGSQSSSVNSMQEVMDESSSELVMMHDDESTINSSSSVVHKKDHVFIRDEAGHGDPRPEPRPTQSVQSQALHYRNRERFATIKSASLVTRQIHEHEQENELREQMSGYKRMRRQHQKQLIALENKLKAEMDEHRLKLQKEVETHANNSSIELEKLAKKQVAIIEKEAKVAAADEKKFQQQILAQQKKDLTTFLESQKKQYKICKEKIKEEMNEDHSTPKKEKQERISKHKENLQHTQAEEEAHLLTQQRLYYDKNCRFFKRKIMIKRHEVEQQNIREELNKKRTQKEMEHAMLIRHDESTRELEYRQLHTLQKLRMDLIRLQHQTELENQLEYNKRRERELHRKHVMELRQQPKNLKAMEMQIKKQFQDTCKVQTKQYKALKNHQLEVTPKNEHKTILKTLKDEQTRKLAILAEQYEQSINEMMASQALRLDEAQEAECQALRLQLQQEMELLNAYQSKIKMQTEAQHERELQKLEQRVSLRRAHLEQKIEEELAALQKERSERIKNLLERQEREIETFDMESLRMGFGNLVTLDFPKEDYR

[10] = target: Calcium/calmodulin-dependent protein kinase kinase 1 (Homo sapiens) (UniProt Q8N5S9); experiment: CAMKK1 Invitrogen selectivity data (BI); details: Compound concentration 3.0 uM
[11] = target: Casein kinase I isoform epsilon (Homo sapiens) (UniProt P49674); experiment: CSNK1E Invitrogen selectivity data (BI); details: Compound concentration 3.0 uM

Measured: residual activity

Sequence of SRSF protein kinase 3 (Homo sapiens) (Q9UPE1 whole entry): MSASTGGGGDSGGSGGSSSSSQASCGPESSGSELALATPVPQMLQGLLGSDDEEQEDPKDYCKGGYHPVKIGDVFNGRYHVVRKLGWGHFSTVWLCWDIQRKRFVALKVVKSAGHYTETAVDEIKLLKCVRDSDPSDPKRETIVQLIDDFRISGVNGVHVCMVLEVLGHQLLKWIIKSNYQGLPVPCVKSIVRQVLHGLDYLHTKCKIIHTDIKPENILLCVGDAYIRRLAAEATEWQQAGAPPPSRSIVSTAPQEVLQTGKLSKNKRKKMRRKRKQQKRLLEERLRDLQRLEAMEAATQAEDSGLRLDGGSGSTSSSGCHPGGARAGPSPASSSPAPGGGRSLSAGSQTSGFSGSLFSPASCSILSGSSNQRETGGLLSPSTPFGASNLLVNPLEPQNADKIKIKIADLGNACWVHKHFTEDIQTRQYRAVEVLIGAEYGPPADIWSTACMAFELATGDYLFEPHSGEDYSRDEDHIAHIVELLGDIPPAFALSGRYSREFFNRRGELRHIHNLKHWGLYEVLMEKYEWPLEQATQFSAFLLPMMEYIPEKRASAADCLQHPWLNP
Sequence of Mitogen-activated protein kinase kinase kinase 9 (Homo sapiens) (P80192 whole entry, looked up): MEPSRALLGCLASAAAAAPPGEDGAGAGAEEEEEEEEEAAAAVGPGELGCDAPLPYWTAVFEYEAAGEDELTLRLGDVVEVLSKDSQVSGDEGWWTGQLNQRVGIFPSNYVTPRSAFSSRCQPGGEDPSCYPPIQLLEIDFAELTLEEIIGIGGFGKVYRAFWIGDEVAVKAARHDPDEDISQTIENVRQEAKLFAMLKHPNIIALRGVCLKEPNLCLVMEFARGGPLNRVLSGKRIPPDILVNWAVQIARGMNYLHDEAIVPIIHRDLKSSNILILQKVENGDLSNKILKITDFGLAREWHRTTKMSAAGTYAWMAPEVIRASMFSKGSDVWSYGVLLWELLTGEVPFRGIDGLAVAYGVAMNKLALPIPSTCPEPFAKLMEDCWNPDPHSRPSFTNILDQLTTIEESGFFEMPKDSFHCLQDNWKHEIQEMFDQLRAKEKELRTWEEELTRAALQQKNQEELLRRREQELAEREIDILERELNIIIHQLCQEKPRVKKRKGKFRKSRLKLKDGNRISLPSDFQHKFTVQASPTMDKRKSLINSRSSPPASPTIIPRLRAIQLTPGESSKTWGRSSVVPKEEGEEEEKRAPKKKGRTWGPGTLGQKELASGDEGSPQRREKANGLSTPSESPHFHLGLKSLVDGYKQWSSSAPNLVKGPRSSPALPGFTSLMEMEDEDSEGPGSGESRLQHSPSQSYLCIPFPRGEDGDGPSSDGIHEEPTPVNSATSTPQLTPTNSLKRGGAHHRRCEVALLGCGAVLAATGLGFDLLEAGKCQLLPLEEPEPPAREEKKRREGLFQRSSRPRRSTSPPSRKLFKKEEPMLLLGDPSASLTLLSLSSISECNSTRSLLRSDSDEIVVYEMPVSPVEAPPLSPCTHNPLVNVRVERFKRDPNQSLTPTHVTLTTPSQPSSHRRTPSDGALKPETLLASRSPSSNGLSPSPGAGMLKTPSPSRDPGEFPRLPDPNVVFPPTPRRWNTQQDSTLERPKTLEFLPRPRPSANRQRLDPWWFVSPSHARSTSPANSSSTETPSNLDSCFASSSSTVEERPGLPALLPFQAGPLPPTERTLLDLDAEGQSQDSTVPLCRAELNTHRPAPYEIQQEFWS
Sequence of Calcium/calmodulin-dependent protein kinase kinase 1 (Homo sapiens) (Q8N5S9 whole entry, looked up, canonical isoform): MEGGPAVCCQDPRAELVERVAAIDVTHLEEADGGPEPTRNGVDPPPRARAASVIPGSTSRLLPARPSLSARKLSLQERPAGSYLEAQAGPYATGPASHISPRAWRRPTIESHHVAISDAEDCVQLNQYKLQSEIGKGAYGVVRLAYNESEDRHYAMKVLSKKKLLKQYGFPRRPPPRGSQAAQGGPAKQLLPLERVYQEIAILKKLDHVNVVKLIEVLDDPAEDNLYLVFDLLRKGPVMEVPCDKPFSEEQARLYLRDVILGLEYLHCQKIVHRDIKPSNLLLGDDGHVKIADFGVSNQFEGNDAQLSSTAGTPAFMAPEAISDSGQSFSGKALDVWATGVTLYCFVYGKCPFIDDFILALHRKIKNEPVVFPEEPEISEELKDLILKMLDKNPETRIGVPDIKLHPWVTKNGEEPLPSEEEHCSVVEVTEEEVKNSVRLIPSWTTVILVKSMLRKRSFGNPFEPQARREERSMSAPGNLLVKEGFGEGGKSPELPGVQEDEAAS
Sequence of NT-3 growth factor receptor (Homo sapiens) (Q16288 32-839 limits assumed): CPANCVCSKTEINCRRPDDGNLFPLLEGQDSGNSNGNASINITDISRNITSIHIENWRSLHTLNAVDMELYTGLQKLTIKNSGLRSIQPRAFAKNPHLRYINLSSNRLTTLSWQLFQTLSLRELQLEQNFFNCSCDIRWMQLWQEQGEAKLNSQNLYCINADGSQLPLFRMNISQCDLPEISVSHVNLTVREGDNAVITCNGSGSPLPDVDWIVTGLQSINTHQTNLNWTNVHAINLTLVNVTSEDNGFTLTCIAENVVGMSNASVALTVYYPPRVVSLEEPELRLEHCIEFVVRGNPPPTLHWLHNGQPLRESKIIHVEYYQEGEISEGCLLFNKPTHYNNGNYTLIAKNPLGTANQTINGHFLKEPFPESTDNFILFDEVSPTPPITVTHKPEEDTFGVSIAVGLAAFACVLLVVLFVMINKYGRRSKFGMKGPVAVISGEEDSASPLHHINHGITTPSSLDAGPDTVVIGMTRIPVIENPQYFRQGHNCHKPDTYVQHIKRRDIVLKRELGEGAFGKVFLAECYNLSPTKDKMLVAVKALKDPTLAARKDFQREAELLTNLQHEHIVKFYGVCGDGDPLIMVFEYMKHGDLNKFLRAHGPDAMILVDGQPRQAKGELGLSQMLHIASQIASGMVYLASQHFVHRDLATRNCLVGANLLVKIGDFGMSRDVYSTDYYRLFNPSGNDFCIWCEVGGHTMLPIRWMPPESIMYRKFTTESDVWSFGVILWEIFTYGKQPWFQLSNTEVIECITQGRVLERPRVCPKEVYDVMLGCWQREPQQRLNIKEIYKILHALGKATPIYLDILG
Sequence of Fibroblast growth factor receptor 2 (Homo sapiens) (P21802 22-821 limits assumed): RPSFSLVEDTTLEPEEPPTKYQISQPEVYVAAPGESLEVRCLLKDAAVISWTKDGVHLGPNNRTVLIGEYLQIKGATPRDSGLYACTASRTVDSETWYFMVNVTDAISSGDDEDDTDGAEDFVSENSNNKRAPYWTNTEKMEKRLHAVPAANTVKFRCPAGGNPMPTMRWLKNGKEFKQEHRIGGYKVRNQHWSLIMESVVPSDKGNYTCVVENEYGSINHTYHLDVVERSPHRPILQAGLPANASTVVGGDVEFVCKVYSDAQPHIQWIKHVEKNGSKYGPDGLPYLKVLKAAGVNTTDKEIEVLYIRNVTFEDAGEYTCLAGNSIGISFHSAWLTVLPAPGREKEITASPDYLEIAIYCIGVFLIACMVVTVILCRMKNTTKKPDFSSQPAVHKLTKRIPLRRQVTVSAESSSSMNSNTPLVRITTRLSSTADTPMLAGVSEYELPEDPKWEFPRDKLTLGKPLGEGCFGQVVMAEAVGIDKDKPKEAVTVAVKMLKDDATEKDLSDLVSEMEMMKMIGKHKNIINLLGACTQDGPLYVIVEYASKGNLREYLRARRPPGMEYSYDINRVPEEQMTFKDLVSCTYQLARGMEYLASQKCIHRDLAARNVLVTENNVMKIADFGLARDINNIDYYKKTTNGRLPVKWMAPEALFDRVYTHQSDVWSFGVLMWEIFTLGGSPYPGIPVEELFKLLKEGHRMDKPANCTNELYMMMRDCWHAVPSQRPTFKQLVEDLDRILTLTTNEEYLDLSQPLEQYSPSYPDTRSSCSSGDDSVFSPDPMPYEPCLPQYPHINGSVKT
Sequence of Casein kinase I isoform epsilon (Homo sapiens) (P49674 whole entry, looked up, canonical isoform): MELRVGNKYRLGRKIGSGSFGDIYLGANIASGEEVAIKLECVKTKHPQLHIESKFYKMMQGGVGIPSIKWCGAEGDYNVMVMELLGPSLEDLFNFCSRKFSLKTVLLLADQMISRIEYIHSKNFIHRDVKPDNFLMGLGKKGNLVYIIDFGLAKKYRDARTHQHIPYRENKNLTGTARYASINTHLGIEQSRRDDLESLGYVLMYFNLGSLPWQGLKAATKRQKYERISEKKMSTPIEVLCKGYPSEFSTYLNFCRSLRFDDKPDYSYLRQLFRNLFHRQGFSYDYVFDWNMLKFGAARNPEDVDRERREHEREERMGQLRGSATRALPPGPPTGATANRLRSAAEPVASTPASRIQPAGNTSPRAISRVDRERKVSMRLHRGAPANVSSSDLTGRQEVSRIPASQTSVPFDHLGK

CN(C)C(=O)Cn1cc(-c2nc(C3(c4ccc(-c5cnc(N)nc5)cc4)CC3)no2)cn1 [BI 0153]
inactive: [1] 97%

CN(C)C(=O)Cn1cc(-c2nc([C@@](C)(c3ccc(-c4cnc(N)nc4)cc3)C3CC3)no2)cn1 [BI 665915]
inactive: [2] 98% | [3] 89% | [4] 91% | [5] 95% | [6] 99% | [7] 95% | [8] 96.5% | [9] 104% | [10] 102% | [11] 95%
